Square brackets hold non-standard residues; d marks the D form. Peptide text beside a SMILES is read from it. * marks the point of attachment. Acetyl(1-pyrenyl) = O=C(Cc1ccc2ccc3cccc4ccc1c2c34)*; Carminic acid = quencher bound covalently; Ala(Pyr) = not defined here; Dap = NC[C@H](N)C(=O)O
Assays:
[1] = target: T1, PKA (Mus musculus, UniProt P05132); test: Control: phosphorylation-induced fluorescence change of pyrene peptides without quenching dye, with 14-3-3τ; format: biochemical, murine; set-up: made in house; settings: absence of quenching dye, ATP, 5 μM peptide
[2] = target: T1, PKA; test: Fluorescence increase of covalently quenched peptides P13, P14 upon phosphorylation by PKA; format: biochemical; settings: for change in fluorescence upon phosphorylation by PKA: in the absence of 14-3-3
Procedure: Pyrene-substituted peptides P13 (FIG. 15 Panel A, SEQ ID NO:21) and P14 (FIG. 15 Panel B, SEQ ID NO:22) were synthesized. […] The assay was performed with a total volume of 200 μL and was initiated with the addition of PKA enzyme. […]

[3] = target: peptide P2; test: Apparent KD of lead quencher dyes with peptide P2 (quenching of pyrene fluorescence); format: binding; settings: with 5 μM pyrene-labeled peptide P2, 100 mM Tris HCl pH 7.5, inner filter corrected
Procedure: KD values were acquired for the set of the ten lead quenchers with peptide P2, in order to obtain a target range for the quencher:peptide ratios to be employed in the subsequent assays (vide infra). These apparent KD values were determined using the quenching of pyrene fluorescence as a barometer of peptide/quencher complex stability. […] An inner filter effect (at high dye concentrations) was corrected as previously described (Levine (1977) Clin. Chem. 23:2292-301).

[4] = target: peptide P5; test: Apparent KD of lead quencher/peptide pair, peptide P5; format: binding
Procedure: (§1) Varying concentrations of 10 dyes (FIG. 2 Panel B), ranging from 0.5-500 μM, were added to 5 μM pyrene-labeled P2 peptide in 100 mM Tris HCl pH 7.5 buffer (96 well plates). […] After correcting for the inner filter effect, the percentage of quench was plotted against the concentration of the dye. A nonlinear regression analysis fit of the data to the rectangular hyperbola model using the Sigma Plot version 8.02 software was used to obtain apparent KD values.

[5] = target: phosphorylated P5 peptide; test: Apparent KD of quencher with phosphorylated P5 peptide; format: binding
Procedure: as §1

[6] = target: peptide P9; test: Apparent KD of lead quencher/peptide pair, peptide P9; settings: read-out: Apparent KD; with peptide P9
Procedure: as §1

Row | Compound | % Fluorescence Enhancement [1] [%] | Kd [3] [µM] | also measured
1 | C[C@@H](O)[C@H](NC(=O)[C@H](CCCNC(=N)N)NC(=O)CNC(=O)CCCCCNC(=O)Cc1ccc2ccc3cccc4ccc1c2c34)C(=O)NCC(=O)N[C@@H](CCCNC(=N)N)C(=O)N[C@@H](CCCNC(=N)N)C(=O)N[C@@H](Cc1ccccc1)C(=O)N[C@@H](CO)C(=O)N[C@@H](Cc1ccc(O)cc1)C(=O)N1CCC[C@H]1C(N)=O [P9] | 48 | – | –
2 | AcGAla(Pyr)TGRRDap(Carminic acid)SLPA-amide (Ac-G[Ala(Pyr)]TGRR[Dap](Carminic acid)SLPA-NH2; reading uncertain) [P14] | – | – | change in fluorescence upon phosphorylation by PKA [2]: No significant change in fluorescence
3 | AcGAla(Pyr)TGRRDap(Reactive Blue 2)SLPA-amide [P13] | – | – | change in fluorescence upon phosphorylation by PKA [2]: No significant change in fluorescence; increase in fluorescence upon phosphorylation by PKA ([2]; in the presence of 14-3-3τ (2.1 μM)): 1.5-2.3 fold
4 | O=S(=O)([O-])c1ccc(N=Nc2ccc(N=Nc3c(O)c(S(=O)(=O)[O-])cc4cc(S(=O)(=O)[O-])ccc34)c(S(=O)(=O)[O-])c2)cc1.[Na+].[Na+].[Na+].[Na+] [D42, Ponceau S] | – | 11.2 ± 2.7 | –
5 | Nc1c(S(=O)(=O)O)cc(Nc2ccc(Nc3nc(Cl)nc(Nc4cccc(S(=O)(=O)O)c4)n3)c(S(=O)(=O)O)c2)c2c1C(=O)c1ccccc1C2=O [D6, Reactive Blue 2] | – | 19.6 ± 3.4 | –
6 | CC(=O)NCC(=O)N[C@@H](CCCNC(=N)N)C(=O)N[C@H](C(=O)NCC(=O)N[C@@H](CCCNC(=N)N)C(=O)N[C@@H](CCCNC(=N)N)C(=O)N[C@@H](CNC(=O)Cc1ccc2ccc3cccc4ccc1c2c34)C(=O)N[C@@H](CO)C(=O)N[C@@H](Cc1ccc(O)cc1)C(=O)N1CCC[C@H]1C(N)=O)[C@@H](C)O [P2, Ac-GRTGRRDap(Pyr)SYP-amide] (Ac-GRTGRR[Dap](Acetyl(1-pyrenyl))SYP-NH2) | 51 | – | –
7 | Aniline Blue WS [D27] | – | 18.1 ± 2.6 | Kd [6]: 0.6 ± 0.03 µM
8 | O=C(O)c1nn(-c2ccc(S(=O)(=O)O)cc2)c(O)c1N=Nc1ccc(S(=O)(=O)O)cc1 [D47, Tartrazine] | – | 15 ± 2.1 | –
9 | Nc1ccc(N=Nc2ccc(-c3ccc(N=Nc4c(S(=O)(=O)[O-])cc5cc(S(=O)(=O)[O-])c(N=Nc6ccccc6)c(O)c5c4N)cc3)cc2)c(N)c1.[Na+].[Na+] [D34, Chlorazol Black E] | – | 7.7 ± 1.5 | –

Continued, in another order:

Row | % Fluorescence Enhancement [1] [%] | Kd [3] [µM] | Compound | also measured
10 | – | 14.3 ± 3.3 | O=[N+]([O-])c1ccc2c(N=Nc3ccc4ccccc4c3O)c(O)cc(S(=O)(=O)[O-])c2c1.[Na+] [D18, Eriochrome Black T] | –
11 | – | 7.5 ± 1.6 | O=C([O-])c1c(Cl)c(Cl)c(Cl)c(Cl)c1-c1c2cc(I)c(=O)c(I)c-2oc2c(I)c([O-])c(I)cc12.[Na+].[Na+] [D43, Rose Bengal] | Kd ([4]; with peptide P5): 0.4 ± 0.03 µM; Kd ([4]; with unphosphorylated P5 peptide): 0.4 ± 0.03 µM; Kd [5]: 0.21 ± 0.04 µM
12 | 40 | – | Ac-GRDap(Pyr)GRRFSYP-amide [P4] | –
13 | – | 11.9 ± 3.6 | Cc1cc(-c2ccc(/N=N/c3c(S(=O)(=O)O)cc4cc(S(=O)(=O)O)cc(N)c4c3O)c(C)c2)ccc1/N=N/c1c(S(=O)(=O)O)cc2cc(S(=O)(=O)O)cc(N)c2c1O [D48, Trypan Blue] | –
14 | 0 | – | Ac-GRTGRRFSDap(Pyr)P-amide [P1] | –
15 | 19 | – | Ac-GRTDap(Pyr)RRFSYP-amide [P3] | –
16 | – | 2.8 ± 0.8 | Cc1cc(-c2ccc(/N=N/c3ccc4c(S(=O)(=O)O)cc(S(=O)(=O)O)c(N)c4c3O)c(C)c2)ccc1/N=N/c1ccc2c(S(=O)(=O)O)cc(S(=O)(=O)O)c(N)c2c1O [D3, Evans Blue] | –
